Results as given in the supplement of paper PMC10307832.

Tests used:
Test in all cases: relative viability (nuclei count vs DMSO), 5 days (fraction); higher = more cells survive
[1] = compound: O=C(/C=C/c1cccnc1)NCCCCC1CCN(C(=O)c2ccccc2)CC1 [Daporinad] + CC(=O)c1c(C)c2cnc(Nc3ccc(N4CCNCC4)cn3)nc2n(C2CCCC2)c1=O [Palbociclib] (partner 0.5 µM)
In short: (§1)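 Relative viability was taken as the ratio of nuclei in treated wells to nuclei in vehicle wells. Lung cancer cell lines in 1536-well plates received compounds by pin tool one day after seeding, either one drug alone or a fixed anchor-drug dose plus five library-drug doses (not always all listed) in √10 steps. Nuclei were counted on 4× images after 5 days of treatment, and values are medians of duplicate plates.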

[2] = compound: O=C(/C=C/c1cccnc1)NCCCCC1CCN(C(=O)c2ccccc2)CC1 [Daporinad] + N=C(N)NC(=N)NCCc1ccccc1 [Phenformin] (partner 250 µM)
In short: as §1

[3] = compound: COc1cc(Nc2ncc(F)c(Nc3ccc4c(n3)NC(=O)C(C)(C)O4)n2)cc(OC)c1OC [R406] + CS(=O)(=O)CCNCc1ccc(-c2ccc3ncnc(Nc4ccc(OCc5cccc(F)c5)c(Cl)c4)c3c2)o1 [Lapatinib] (partner 2 µM)
In short: as §1

[4] = compound: O=C(/C=C/c1cccnc1)NCCCCC1CCN(C(=O)c2ccccc2)CC1 [Daporinad] + CCNC(=O)c1noc(-c2cc(C(C)C)c(O)cc2O)c1-c1ccc(CN2CCOCC2)cc1 [Luminespib] (partner 0.01 µM)
In short: as §1

## NCI-H322M
[1]; first compound 0.0005 µM
  relative viability: 0.495
[1]; first compound 0.001581 µM
  relative viability: 0.565
[1]; first compound 0.005 µM
  relative viability: 0.449
[1]; first compound 0.01581 µM
  relative viability: 0.512
[2]; first compound 0.0005 µM
  relative viability: 0.793
[2]; first compound 0.001581 µM
  relative viability: 0.726
[2]; first compound 0.005 µM
  relative viability: 0.686
[2]; first compound 0.01581 µM
  relative viability: 0.436
[3]; first compound 0.08 µM
  relative viability: 0.543
[3]; first compound 0.253 µM
  relative viability: 0.51
[3]; first compound 0.8 µM
  relative viability: 0.647
[3]; first compound 2.53 µM
  relative viability: 0.335
[3]; first compound 8 µM
  relative viability: 0.343
[4]; first compound 0.0005 µM
  relative viability: 0.997
[4]; first compound 0.001581 µM
  relative viability: 0.97
[4]; first compound 0.005 µM
  relative viability: 0.853
[4]; first compound 0.01581 µM
  relative viability: 0.608

## NCI-H358
[1]; first compound 0.0005 µM
  relative viability: 0.111
[1]; first compound 0.001581 µM
  relative viability: 0.135
[1]; first compound 0.005 µM
  relative viability: 0.154
[1]; first compound 0.01581 µM
  relative viability: 0.153
[2]; first compound 0.0005 µM
  relative viability: 0.297
[2]; first compound 0.001581 µM
  relative viability: 0.404
[2]; first compound 0.005 µM
  relative viability: 0.445
[2]; first compound 0.01581 µM
  relative viability: 0.303
[3]; first compound 0.08 µM
  relative viability: 0.407
[3]; first compound 0.253 µM
  relative viability: 0.441
[3]; first compound 0.8 µM
  relative viability: 0.47
[3]; first compound 2.53 µM
  relative viability: 0.375
[3]; first compound 8 µM
  relative viability: 0.2
[4]; first compound 0.0005 µM
  relative viability: 0.27
[4]; first compound 0.001581 µM
  relative viability: 0.305
[4]; first compound 0.005 µM
  relative viability: 0.599
[4]; first compound 0.01581 µM
  relative viability: 0.359

## NCI-H441
[1]; first compound 0.0005 µM
  relative viability: 0.186
[1]; first compound 0.001581 µM
  relative viability: 0.209
[1]; first compound 0.005 µM
  relative viability: 0.212
[1]; first compound 0.01581 µM
  relative viability: 0.23
[2]; first compound 0.0005 µM
  relative viability: 0.813
[2]; first compound 0.001581 µM
  relative viability: 0.82
[2]; first compound 0.005 µM
  relative viability: 0.883
[2]; first compound 0.01581 µM
  relative viability: 0.734
[4]; first compound 0.0005 µM
  relative viability: 0.36
[4]; first compound 0.001581 µM
  relative viability: 0.324
[4]; first compound 0.005 µM
  relative viability: 0.367
[4]; first compound 0.01581 µM
  relative viability: 0.343

## NCI-H460
[1]; first compound 0.0005 µM
  relative viability: 0.153
[1]; first compound 0.001581 µM
  relative viability: 0.191
[1]; first compound 0.005 µM
  relative viability: 0.236
[1]; first compound 0.01581 µM
  relative viability: 0.169
[2]; first compound 0.0005 µM
  relative viability: 0.472
[2]; first compound 0.001581 µM
  relative viability: 0.575
[2]; first compound 0.005 µM
  relative viability: 0.533
[2]; first compound 0.01581 µM
  relative viability: 0.523
[3]; first compound 0.08 µM
  relative viability: 1.07
[3]; first compound 0.253 µM
  relative viability: 1.51
[3]; first compound 8 µM
  relative viability: 0.308
[4]; first compound 0.0005 µM
  relative viability: 0.0254
[4]; first compound 0.001581 µM
  relative viability: 0.0436
[4]; first compound 0.005 µM
  relative viability: 0.0289
[4]; first compound 0.01581 µM
  relative viability: 0.0343

## NCI-H520
[1]; first compound 0.0005 µM
  relative viability: 0.209
[1]; first compound 0.001581 µM
  relative viability: 0.286
[1]; first compound 0.005 µM
  relative viability: 0.158
[1]; first compound 0.01581 µM
  relative viability: 0.183
[2]; first compound 0.0005 µM
  relative viability: 0.554
[2]; first compound 0.001581 µM
  relative viability: 0.286
[2]; first compound 0.005 µM
  relative viability: 0.187
[2]; first compound 0.01581 µM
  relative viability: 0.22
[3]; first compound 0.08 µM
  relative viability: 0.733
[3]; first compound 0.253 µM
  relative viability: 1.03
[3]; first compound 0.8 µM
  relative viability: 1.02
[3]; first compound 2.53 µM
  relative viability: 0.241
[3]; first compound 8 µM
  relative viability: 0.133
[4]; first compound 0.0005 µM
  relative viability: 0.235
[4]; first compound 0.001581 µM
  relative viability: 0.193
[4]; first compound 0.005 µM
  relative viability: 0.197
[4]; first compound 0.01581 µM
  relative viability: 0.195

## NCI-H522
[1]; first compound 0.0005 µM
  relative viability: 1.06
[1]; first compound 0.001581 µM
  relative viability: 1.06
[1]; first compound 0.005 µM
  relative viability: 0.746
[1]; first compound 0.01581 µM
  relative viability: 0.908
[2]; first compound 0.0005 µM
  relative viability: 0.654
[2]; first compound 0.001581 µM
  relative viability: 0.758
[2]; first compound 0.005 µM
  relative viability: 0.695
[2]; first compound 0.01581 µM
  relative viability: 0.682
[4]; first compound 0.0005 µM
  relative viability: 1.28
[4]; first compound 0.001581 µM
  relative viability: 1.13
[4]; first compound 0.005 µM
  relative viability: 0.971
[4]; first compound 0.01581 µM
  relative viability: 0.846

## NCI-H596
[2]; first compound 0.0005 µM
  relative viability: 0.627
[2]; first compound 0.001581 µM
  relative viability: 0.749
[2]; first compound 0.005 µM
  relative viability: 0.774
[2]; first compound 0.01581 µM
  relative viability: 0.746
[3]; first compound 0.08 µM
  relative viability: 1.04
[3]; first compound 0.253 µM
  relative viability: 1.2
[3]; first compound 0.8 µM
  relative viability: 0.972
[3]; first compound 2.53 µM
  relative viability: 0.867
[3]; first compound 8 µM
  relative viability: 0.421
[4]; first compound 0.0005 µM
  relative viability: 0.919
[4]; first compound 0.001581 µM
  relative viability: 1.04
[4]; first compound 0.005 µM
  relative viability: 1.05
[4]; first compound 0.01581 µM
  relative viability: 0.479

## NCI-H647
[1]; first compound 0.0005 µM
  relative viability: 0.251
[1]; first compound 0.001581 µM
  relative viability: 0.429
[1]; first compound 0.005 µM
  relative viability: 0.414
[1]; first compound 0.01581 µM
  relative viability: 0.363
[2]; first compound 0.0005 µM
  relative viability: 0.534
[2]; first compound 0.001581 µM
  relative viability: 0.65
[2]; first compound 0.005 µM
  relative viability: 0.641
[2]; first compound 0.01581 µM
  relative viability: 0.643
[3]; first compound 0.08 µM
  relative viability: 0.84
[3]; first compound 0.253 µM
  relative viability: 1.17
[3]; first compound 0.8 µM
  relative viability: 1.78
[3]; first compound 2.53 µM
  relative viability: 0.0824
[3]; first compound 8 µM
  relative viability: 0.157
[4]; first compound 0.0005 µM
  relative viability: 0.183
[4]; first compound 0.001581 µM
  relative viability: 0.173
[4]; first compound 0.005 µM
  relative viability: 0.239
[4]; first compound 0.01581 µM
  relative viability: 0.182

## NCI-H1299
[3]; first compound 0.08 µM
  relative viability: 1.01
[3]; first compound 0.253 µM
  relative viability: 0.982
[3]; first compound 0.8 µM
  relative viability: 0.98
[3]; first compound 2.53 µM
  relative viability: 0.933
[3]; first compound 8 µM
  relative viability: 0.721

## NCI-H1563
[2]; first compound 0.0005 µM
  relative viability: 0.715
[2]; first compound 0.001581 µM
  relative viability: 0.744
[2]; first compound 0.005 µM
  relative viability: 0.755
[2]; first compound 0.01581 µM
  relative viability: 0.626
[3]; first compound 0.08 µM
  relative viability: 0.886
[3]; first compound 0.253 µM
  relative viability: 1.06
[3]; first compound 0.8 µM
  relative viability: 1.06
[3]; first compound 2.53 µM
  relative viability: 0.506
[3]; first compound 8 µM
  relative viability: 0.574
[4]; first compound 0.0005 µM
  relative viability: 0.535
[4]; first compound 0.001581 µM
  relative viability: 0.582
[4]; first compound 0.005 µM
  relative viability: 0.493
[4]; first compound 0.01581 µM
  relative viability: 0.485

## NCI-H1648
[1]; first compound 0.0005 µM
  relative viability: 0.305
[1]; first compound 0.001581 µM
  relative viability: 0.291
[1]; first compound 0.005 µM
  relative viability: 0.278
[1]; first compound 0.01581 µM
  relative viability: 0.237

## NCI-H1703
[3]; first compound 0.08 µM
  relative viability: 1.52
[3]; first compound 0.8 µM
  relative viability: 1.03
[3]; first compound 2.53 µM
  relative viability: 0.218
[3]; first compound 8 µM
  relative viability: 0.17

## NCI-H2342
[1]; first compound 0.0005 µM
  relative viability: 0.513
[1]; first compound 0.001581 µM
  relative viability: 0.506
[1]; first compound 0.005 µM
  relative viability: 0.506
[1]; first compound 0.01581 µM
  relative viability: 0.535
[2]; first compound 0.0005 µM
  relative viability: 0.62
[2]; first compound 0.001581 µM
  relative viability: 0.61
[2]; first compound 0.005 µM
  relative viability: 0.595
[2]; first compound 0.01581 µM
  relative viability: 0.546
[4]; first compound 0.0005 µM
  relative viability: 0.668
[4]; first compound 0.001581 µM
  relative viability: 0.786
[4]; first compound 0.005 µM
  relative viability: 0.707
[4]; first compound 0.01581 µM
  relative viability: 0.631

## SW 900
[1]; first compound 0.0005 µM
  relative viability: 0.432
[1]; first compound 0.005 µM
  relative viability: 0.573
[1]; first compound 0.01581 µM
  relative viability: 0.501
[2]; first compound 0.0005 µM
  relative viability: 0.518
[2]; first compound 0.001581 µM
  relative viability: 0.674
[2]; first compound 0.005 µM
  relative viability: 0.798
[2]; first compound 0.01581 µM
  relative viability: 0.595
[4]; first compound 0.0005 µM
  relative viability: 0.19
[4]; first compound 0.001581 µM
  relative viability: 0.159
[4]; first compound 0.005 µM
  relative viability: 0.181
[4]; first compound 0.01581 µM
  relative viability: 0.17
